In patent US20230165821A1, “ELAFIBRANOR FOR THE TREATMENT OF PRIMARY SCLEROSING CHOLANGITIS” (Genfit, priority 2020, published 2023):
“Also recorded” adds a separate entry of the source.

Key:
Type in all cases: in vivo, human
total bilirubin level = assay: Phase I clinical trial, assessment of bilirubin level; conditions: for Measure of total bilirubin Day 15 change from the baseline: fasting, n=9
Source text: (§1) Patients with clinical PSC have elevated alkaline phosphatase (ALP) and bilirubin levels. […] Some studies underline also elevated levels of bilirubin (Denau, M.R. et al., The Natural History of Primary Sclerosing Cholangitis in 781 Children: A Multicenter, International Collaboration. Hepatology (2017), Vol. 66, N° 2 pp518-527).
(§2) This clinical trial has been performed to assess the tolerability, safety and reduction of different parameters, including alkaline phosphatase of once-a-day administrations of oral doses of elafibranor (ELA) in […]. This was a phase I, single-center, double-blind, placebo-controlled, randomised, ascending multiple-dose study in healthy male volunteers. Doses of 40 mg or 60 mg once-a-day during 14 days were tested.
(§3) Thirty 19-40 years old Caucasian male volunteers were included: 9 for each treatment group and 12 for the placebo group.
(§4) The compound used was ELA, supplied in hard gelatin capsules dosed at 10 mg. Dose per administration was of 40 mg or 60 mg. Administration was repeated once-a-day, with an oral administration around 8 a.m. with 200 mL tap water, in sitting position, in fasting conditions, from day 1 to day 14. Matching placebo was presented as identical capsules.

[1] = tested on: alkaline phosphatase (ALP) level; assay: Phase I clinical trial, assessment of ALP level; conditions: for Measure of ALP Day 15 change from the baseline: fasting, n=9, baseline day 1
Source text: as §1, §2, §3, §4
Alkaline phosphatase level was assessed at baseline (day 1) and day 15.

healthy male volunteers = assay: Phase I clinical trial, tolerability and safety
Method: as §2, §3, §4

[2] = ELA 40 mg/day oral once-a-day for 14 days
[3] = ELA 60 mg/day oral once-a-day for 14 days

Compound: CSc1ccc(C(=O)C=Cc2cc(C)c(OC(C)(C)C(=O)O)c(C)c2)cc1 [ELA, 2-(2,6-dimethyl-4-{3-[4-(methylsulfanyl)phenyl]-3-oxopropen-1-yl}phenoxy)-2-methylpropanoic acid]
- Measure of total bilirubin Day 15 change from the baseline (total bilirubin level; [2]): -2.07
- Measure of total bilirubin Day 15 change from the baseline (total bilirubin level; [3]): -2.46
- Total bilirubin levels compared to placebo group (total bilirubin level; both doses (40 mg and 60 mg), once-a-day, 14 days): improved total bilirubin levels compared to placebo group
- Measure of ALP Day 15 change from the baseline [1, 2]: -8.3
- Measure of ALP Day 15 change from the baseline [1, 3]: -20.7
- Alkaline phosphatase levels compared to placebo group ([1]; both doses (40 mg and 60 mg), once-a-day, 14 days, listed as elafibranor): improved alkaline phosphatase levels compared to placebo group; also recorded: decreased mean ALP compared with placebo
- Serious adverse events (healthy male volunteers; 40 mg or 60 mg once-a-day, 14 days, oral): No serious adverse events were reported
- Clinical tolerance (healthy male volunteers; repeated administration at either dose (40 mg or 60 mg), healthy volunteers): good clinical tolerance
